Data reported in US7214507B2, “Plant enzymes for bioconversion” (Plant Research International B.V., priority 2001, dated 2007).
Values joined by “and” are separate entries in the source; they are usually repeats but may differ in a detail not shown here. Identical values can stand only once.

What was measured:
[1] = tested on: microsomal pellet from chicory roots; test: Conversion of (+)-valencene by a microsomal pellet of chicory in the presence of NADPH; settings: 100% = hydroxylation rate of β-selinene, 60 min
Method: The enzyme suspension was divided in 1 mL aliquots and incubated with 50 μM (+)-valencene in the presence of a 1 mM NADPH-regenerating system that consisted of 1 mM NADPH, 5 mM glucose-6-phosphate, and 1.2 IU glucose-6-phosphate cehydrogenase. The initial concentration of substrate in each assay was 45 μM and all experiments were done in duplicate. To the blank assays no NADPH regenerating system was added, so that cytochrome P450 enzymes (including the (+)-germacrene A hydroxylase) were not active. After 60 minutes the incubations were stopped by storing them at −20° C. in a freezer.

[2] = tested on: (+)-germacrene A hydroxylase; test: Competitive inhibition of hydroxylation by 50 μM (+)-germacrene A or 50 μM α-cubebene; settings: amorpha-4,11-diene alcohol (KI 1720), germacrene B alcohol (KI 1700)
[3] = tested on: NAD(P)+-dependent dehydrogenase(s); test: Oxidation of alcohols by 150,000 g supernatant of chicory roots with NAD(P)+; format: biochemical, Cichorium intybus L.; settings: 100 μM substrate
Method: It was assumed that this β-nootkatol is an intermediate in the formation of nootkatone. For this reason incubations of 100 μM β-nootkatol were performed at pH 10 with NAD(P)^+and a 150,000 g supernatant of chicory roots, such as described for the conversion of (−)-elema-1,3,11(13)-12-ol and germacra-1(10),4,11(13)-trien-12-ol by NADP^+-dependent dehydrogenases by De Kraker et al. (2001). During incubation the added β-nootkatol was converted for more than 60% into nootkatone in the presence of either 1 mM NADP^+ or 1 mM NAD^+. In the absence of these cofactors conversion still amounted to 25%, whereas the boiled enzyme extract gave no conversion of β-nootkatol. At pH 7.5, enzyme activity was slightlylower, whereas a 150,000 g pellet, as expected, yielded 3-fold less dehydrogenase activity than the corresponding supernatant.
To get some more information about the substrate specificity of the dehydrogenase(s) present in chicory roots, incubations with the 150,000 g supernatant were also performed with 100 μM trans,trans-farnesol as substrate (FIG. 19) in the presence of either NAD^+ or NADP^+. Trans,trans-farnesol was converted up to 60% into a mixture of trans,trans-farnesal and cis,trans-farnesal, and small amounts of farnesoic acid were observed as well.

Structure (SMILES): C=C(C)[C@@H]1CCC2=CCC[C@@H](C)[C@]2(C)C1 [(+)-valencene]
- Relative conversion to nootkatone [1]: 24.4% and 24.4 ± 1.1%
- Relative conversion to valencen-12-ol [1]: 2.61% and 2.6 ± 0.1%

Structure (SMILES): CC(C)=C1C/C=C(\C)CC/C=C(\C)CC1 [germacrene B]
- Inhibition (%) ± SD, Germacrene A, second product ([2]; 50 μM (+)-germacrene A added): 100.0%
- Inhibition (%) ± SD, α-Cubebene, second product ([2]; 50 μM α-cubebene added): 27.3 ± 10%

Structure (SMILES): C=C(C)[C@@H]1CCC2=C[C@@H](O)C[C@@H](C)[C@]2(C)C1 [β-nootkatol]
- Conversion into nootkatone ([3]; pH 10, 1 mM NADP+ or 1 mM NAD+, 150,000 g supernatant): more than 60%
- Conversion into nootkatone in the absence of cofactors ([3]; pH 10, no NAD(P)+): 25%
